The source of these data is the supplement of paper PMC4862054.

The structures appear in SMILES notation.

Holding throughout (conditions): incubation time: 72 h
Test [1] has as its system HCC1143. Kind of test: normalised response (% of control), CellTox Green; higher = less cell death (100 = DMSO, 0 = benzethonium chloride kill control). In outline: (§1)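 Breast cancer cell lines were exposed for 72 h in 384-well plates to compound at 5 concentrations, 10-fold apart, covering a 10,000-fold range fixed for each compound. Plates were read for CellTox Green fluorescence and CellTiter-Glo luminescence and normalised to 0.1 % DMSO (100) and a positive kill control (0). Each value is the normalised signal at one concentration of the series.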

The test system of test [2] is BT-474. Kind of test: normalised response (% of control), CellTiter-Glo; higher = more viable cells (100 = DMSO, 0 = benzethonium chloride kill control). In a few lines: as §1
(In general: ATP-based viability assays read luminescence as a measure of living cells.)

Test [3] concerns BT-549. The test is described as above. In outline: as §1
The test system of test [4] is CAL-120. The test is described as above. In outline: as §1
For test [5], the system named is CAL-51. The description is as above. In outline: as §1
In test [6] the test system is CAL-85-1. The description is as above. In a few lines: as §1
Test [7] concerns DU-4475. The test is described as above. In outline: as §1
Test [8] has as its system HCC1143. The test is described as above. In a few lines:
as §1

Test [9] concerns HCC1937. The test is described as above. In a few lines:
as §1

Test [10] relates to HDQ-P1. Described as above. In outline: as §1
Test [11] relates to MDA-MB-231. The description is as above. In outline:
as §1

Test [12] deals with MDA-MB-453. Described as above. In outline: as §1
Test [13] relates to MDA-MB-468. The test is described as above. In outline:
as §1

The subject of test [14] is SK-BR-3. The test is described as above. In a few lines: as §1
Test [15] has as its system BT-474. Kind of test: drug sensitivity score (DSS), CellTox Green (DSS (AUC-based score)); higher = stronger drug effect (viability inhibition or cytotoxicity); extreme values may be limits of the assay. In outline:
(§2)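 The drug sensitivity score was computed from the area under the fitted dose-response curve. Breast cancer cell lines in 20 µl suspension went into 384-well plates holding compound at 5 concentrations (10-fold steps over a 10,000-fold, compound-specific range) for 72 h of incubation. CellTox Green fluorescence (485/520 nm) was read before CellTiter-Glo luminescence, the latter after 10 min at room temperature, and each plate was normalised to 0.1 % DMSO and a positive kill control.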

Test [16] relates to BT-549. The test is described as above. In outline:
as §2

Test [17] concerns CAL-120. Described as above. In a few lines: as §2
The test system of test [18] is CAL-148. The description is as above. In a few lines:
as §2

The test system of test [19] is CAL-51. The test is described as above. In a few lines: as §2
The subject of test [20] is CAL-85-1. Described as above. In outline: as §2
In test [21] the test system is HCC1599. The description is as above. In a few lines: as §2
The subject of test [22] is HCC1937. The test is described as above. In a few lines:
as §2

In test [23] the test system is HDQ-P1. Described as above. In a few lines: as §2
The subject of test [24] is MDA-MB-231. Described as above. In a few lines: as §2
In test [25] the test system is MDA-MB-436. Described as above. In a few lines:
as §2

For test [26], the system named is MDA-MB-453. The description is as above. In outline:
as §2

Test [27] has as its system MFM-223. The test is described as above. In a few lines: as §2

Consider `COc1cc([C@@H]2c3cc4c(cc3[C@@H](O[C@@H]3O[C@@H]5CO[C@@H](C)O[C@H]5[C@H](O)[C@H]3O)[C@H]3COC(=O)[C@H]23)OCO4)cc(OC)c1O` [Etoposide] (10000 nM), for which the normalised response in test [1] was 98.3%; in test [2], 44.1%; in [3] it was 35.9%; in test [4], 73.7%; in [5] it was 23.9%; in test [6], 49.8%. For the same molecule, the normalised response amounted to 19.6% in test [7]; 38.8% in test [8]; 67.5% in test [9]; 82.3% in test [10]; 70.8% in test [11]; 142% in [12]. The normalised response stood at 38.5% in test [13] and 15.8% in test [14].

Turning to `CN(N=O)C(=O)N[C@@H](C=O)[C@@H](O)[C@H](O)[C@H](O)CO` [Streptozocin] (10000 nM), the normalised response in [2] was 100%; in test [3], 97.7%; in test [4] it was 109%; in [5], 91.8%; in test [6], 98.5%; in test [7] it was 96.1%. In addition, the normalised response in test [8] was found to be 106%; in test [9], 105%; in [10], 102%; in test [11], 98%; in [12], 95.6%; in test [13] it was 104%. Moreover, the normalised response in test [14] worked out at 108%.

In the case of `CC(=O)Nc1ccc(C(=O)Nc2ccccc2N)cc1` [Tacedinaline], the drug sensitivity score in test [15], in test [16], in test [17], in test [18], in test [19] and in test [20] was 0 each time. For the same molecule, the drug sensitivity score in test [21], in test [22], in test [23], in test [24], in [25] and in test [26] was 0 throughout. Moreover, in [27], the drug sensitivity score came out at 0.

Turning to `CCC1=C[C@@H]2CN(C1)Cc1c([nH]c3ccccc13)[C@@](C(=O)OC)(c1cc3c(cc1OC)N(C)[C@H]1[C@@](O)(C(=O)OC)[C@H](OC(C)=O)[C@]4(CC)C=CCN5CC[C@]31[C@@H]54)C2` [Vinorelbine] (10000 nM), the normalised response in [1] was 106%; in test [2], 48.2%; in test [3], 36.1%; in test [4], 54%; in test [5] it was 27.5%; in [6], 48.9%. Also, the normalised response in [7] came to 40.4%; in test [8] it was 55.3%; in [9], 69.8%; in test [10], 70.6%; in test [11], 40.1%; in test [12] it was 53.8%. Moreover, the normalised response came to 18.1% in test [13] and 14.8% in test [14].
